This passage reports EC50 and activation results from PMC3072374, “Evolution of Vertebrate Transient Receptor Potential Vanilloid 3 Channels: Opposite Temperature Sensitivity between Mammals and Western Clawed Frogs” (PLoS Genetics, 2011).

In experiment [1] the target is T1, western clawed frog TRPV3 (Xenopus tropicalis, UniProt A0A7D9NMJ5).
T1 construct: full-length native channel, 773 residues, cDNA cloned from toe RNA into pGEMHE; cRNA injected into Xenopus laevis oocytes; homotetramer (known biology)
T1 sequence (A0A7D9NMJ5 1-773): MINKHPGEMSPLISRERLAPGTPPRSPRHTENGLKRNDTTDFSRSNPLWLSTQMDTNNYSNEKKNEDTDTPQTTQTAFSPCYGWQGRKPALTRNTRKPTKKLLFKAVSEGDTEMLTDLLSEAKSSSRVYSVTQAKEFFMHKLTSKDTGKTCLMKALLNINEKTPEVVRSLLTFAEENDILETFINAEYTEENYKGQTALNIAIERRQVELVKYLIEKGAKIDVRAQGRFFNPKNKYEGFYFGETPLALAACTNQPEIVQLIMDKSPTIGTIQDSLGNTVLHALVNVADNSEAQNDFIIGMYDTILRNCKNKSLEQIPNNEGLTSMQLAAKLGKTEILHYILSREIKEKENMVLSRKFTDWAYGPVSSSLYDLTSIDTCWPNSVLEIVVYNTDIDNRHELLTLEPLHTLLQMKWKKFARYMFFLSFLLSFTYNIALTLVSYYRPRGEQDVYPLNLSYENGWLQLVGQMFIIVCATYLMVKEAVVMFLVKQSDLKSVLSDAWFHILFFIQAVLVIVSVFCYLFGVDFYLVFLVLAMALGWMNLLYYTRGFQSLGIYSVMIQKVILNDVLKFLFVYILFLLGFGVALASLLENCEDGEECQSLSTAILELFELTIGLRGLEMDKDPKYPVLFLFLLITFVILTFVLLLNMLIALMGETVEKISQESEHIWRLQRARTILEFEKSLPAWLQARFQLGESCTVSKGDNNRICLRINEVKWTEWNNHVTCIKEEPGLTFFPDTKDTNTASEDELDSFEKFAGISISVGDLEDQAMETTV
As to the kind of experiment: two-electrode voltage clamp in Xenopus laevis oocytes, dose-response. Type of experiment: cell-based. Background: In two-electrode clamp one electrode senses voltage and the other passes current.

In the next experiment the target is T2, mouse TRPV3 (Mus musculus, UniProt Q8K424).
T2 construct: full-length channel from pcDNA3 subcloned into pOX+; cRNA injected into Xenopus laevis oocytes; homotetramer (known biology)
T2 sequence (Q8K424 1-791): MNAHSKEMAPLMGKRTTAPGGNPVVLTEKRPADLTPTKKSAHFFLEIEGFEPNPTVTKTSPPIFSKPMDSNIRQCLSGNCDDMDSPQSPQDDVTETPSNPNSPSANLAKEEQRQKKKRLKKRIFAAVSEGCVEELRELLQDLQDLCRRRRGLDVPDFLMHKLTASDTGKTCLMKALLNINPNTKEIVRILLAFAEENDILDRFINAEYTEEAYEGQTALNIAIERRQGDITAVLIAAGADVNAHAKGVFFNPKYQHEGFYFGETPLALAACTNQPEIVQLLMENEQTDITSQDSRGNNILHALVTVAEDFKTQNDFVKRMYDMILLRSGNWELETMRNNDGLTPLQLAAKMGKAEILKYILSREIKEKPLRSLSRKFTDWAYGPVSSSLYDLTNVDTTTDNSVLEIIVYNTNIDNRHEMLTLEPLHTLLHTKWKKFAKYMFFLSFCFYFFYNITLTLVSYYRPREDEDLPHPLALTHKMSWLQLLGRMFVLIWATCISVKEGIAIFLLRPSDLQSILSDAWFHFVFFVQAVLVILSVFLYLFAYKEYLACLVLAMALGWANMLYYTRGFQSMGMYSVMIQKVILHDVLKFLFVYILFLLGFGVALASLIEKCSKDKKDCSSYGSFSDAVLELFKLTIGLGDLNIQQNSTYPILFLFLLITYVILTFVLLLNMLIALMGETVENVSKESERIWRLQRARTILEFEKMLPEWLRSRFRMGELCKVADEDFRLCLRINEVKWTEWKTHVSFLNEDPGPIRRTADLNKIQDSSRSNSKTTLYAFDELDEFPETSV
As to the kind of experiment: two-electrode voltage clamp in Xenopus laevis oocytes. It is filed as cell-based. To be noted: agonist.

Consider `NCCOB(c1ccccc1)c1ccccc1` [2-APB], for which the concentration for a half-maximal effect (EC50) (in general, the concentration at which the effect is half-maximal) in experiment [1] worked out at 540 ± 240 µM.
`CC12CCC(CC1)C(C)(C)O2` [eucalyptol]: the activation result on mouse TRPV3 (10 mM eucalyptol) was “well known activators of mammalian TRPV3 (Figure 5F and 5G, Right)”.
As for `CC12CCC(CC1=O)C2(C)C` (stereo not drawn) [camphor], the activation result on mouse TRPV3 (8 mM camphor) is “well known activators of mammalian TRPV3 (Figure 5F and 5G, Right)”.
